# Tests used:
# Format in all cases: in vivo
# rice (Diamant variety) [1] = experiment: Rice seed treatment with BHMPA salts: germinating power
# Method in brief: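 Seeds (50 per Petri dish on two layers of filter paper) soaked 1 h in BHMPA or its Ca, Mg, Na, Co, Mn, Cu or Zn salts at 1·10^−6-1·10^−12%, with water controls. Germination energy read on day 4, germination on day 8 (wheat) or day 7 (rice, corn), as % means of four replicates. Germinating power taken as root and sprout length plus wet and dry mass per 100 seedlings.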
# rice (Diamant variety) [2] = experiment: Rice seed treatment with BHMPA salts: germination energy and germination rate
# Method in brief: (§1)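 Corn, winter wheat and rice seeds (50 per dish, on filter paper) were soaked for 1 h in BHMPA or its metal salts at 1·10^−6-1·10^−12%, with water as control. Germination energy was read on day 4 and germination rate on day 8 for wheat and day 7 for rice and corn, following GOST 12038-84, as the mean of four replicates.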
# [3] = system: corn (Krasnodar 385 MV variety); experiment: Corn seed treatment with BHMPA salts: germination energy and germination rate
# Method in brief: as §1
# [4] = rice seed treatment, comparison with Melaphen (Table XXXIII), solution 1 · 10^−10%
# [5] = rice seeds, solution concentration 1 · 10^−6%
# [6] = rice seeds, solution concentration 1 · 10^−7%
# [7] = rice seeds, solution concentration 1 · 10^−8%
# [8] = rice seeds, solution concentration 1 · 10^−9%
# [9] = rice seeds, solution concentration 1 · 10^−10%
# [10] = rice seeds, solution concentration 1 · 10^−11%
# [11] = rice seeds, solution concentration 1 · 10^−12%
# [12] = rice, vs control, 1·10^−10% solution
# [13] = rice seed treatment, solution 1 · 10^−10%
# [14] = seed treatment, concentration 1 · 10^−6%
# [15] = seed treatment, concentration 1 · 10^−7%
# [16] = seed treatment, concentration 1 · 10^−8%
# [17] = seed treatment, concentration 1 · 10^−9%
# [18] = seed treatment, concentration 1 · 10^−10%
# [19] = seed treatment, concentration 1 · 10^−11%
# [20] = seed treatment, concentration 1 · 10^−12%
# [21] = comparative study vs Melaphen, 1·10^−9% solution
compound,measurement,setting,value
"O=P([O-])(CO)CO.O=P([O-])(CO)CO.[Mg+2] [Mg-salt, Magnesium BHMPA Salt]",optimum concentration for treating rice seeds before sowing,rice (Diamant variety) [1]; rice,1·10^−10%
same,"Length, root",rice (Diamant variety) [1]; [4],7.2 cm
same,"Length, root, + % to control",rice (Diamant variety) [1]; [4],50%
same,"Length, sprout",rice (Diamant variety) [1]; [4],4.6 cm
same,"Length, sprout, + % to control",rice (Diamant variety) [1]; [4],77%
same,"Mass, dry, root",rice (Diamant variety) [1]; [4],0.26 g/100 plantlings
same,"Mass, dry, root, + % to control",rice (Diamant variety) [1]; [4],24%
same,"Mass, dry, sprout",rice (Diamant variety) [1]; [4],0.30 g/100 plantlings
same,"Mass, dry, sprout, + % to control",rice (Diamant variety) [1]; [4],20%
same,"Mass, wet, root",rice (Diamant variety) [1]; [4],1.39 g/100 plantlings
same,"Mass, wet, root, + % to control",rice (Diamant variety) [1]; [4],42%
same,"Mass, wet, sprout",rice (Diamant variety) [1]; [4],2.39 g/100 plantlings
same,"Mass, wet, sprout, + % to control",rice (Diamant variety) [1]; [4],58%
same,"Length, root",rice (Diamant variety) [1]; [5],6.0 cm
same,"Length, root, + % to control",rice (Diamant variety) [1]; [5],13%
same,"Length, sprout",rice (Diamant variety) [1]; [5],2.8 cm
same,"Length, sprout, + % to control",rice (Diamant variety) [1]; [5],4%
same,"Mass, dry, root",rice (Diamant variety) [1]; [5],0.23 g/100 plantlings
same,"Mass, dry, root, + % to control",rice (Diamant variety) [1]; [5],4.5%
same,"Mass, dry, sprout",rice (Diamant variety) [1]; [5],0.35 g/100 plantlings
same,"Mass, dry, sprout, + % to control",rice (Diamant variety) [1]; [5],21%
same,"Mass, wet, root",rice (Diamant variety) [1]; [5],1.17 g/100 plantlings
same,"Mass, wet, root, + % to control",rice (Diamant variety) [1]; [5],18%
same,"Mass, wet, sprout",rice (Diamant variety) [1]; [5],1.96 g/100 plantlings
same,"Mass, wet, sprout, + % to control",rice (Diamant variety) [1]; [5],10%
same,"Length, root",rice (Diamant variety) [1]; [6],6.4 cm
same,"Length, root, + % to control",rice (Diamant variety) [1]; [6],21%
same,"Length, sprout",rice (Diamant variety) [1]; [6],2.9 cm
same,"Length, sprout, + % to control",rice (Diamant variety) [1]; [6],7%
same,"Mass, dry, root",rice (Diamant variety) [1]; [6],0.25 g/100 plantlings
same,"Mass, dry, root, + % to control",rice (Diamant variety) [1]; [6],14%
same,"Mass, dry, sprout",rice (Diamant variety) [1]; [6],0.40 g/100 plantlings
same,"Mass, dry, sprout, + % to control",rice (Diamant variety) [1]; [6],40%
same,"Mass, wet, root",rice (Diamant variety) [1]; [6],1.26 g/100 plantlings
same,"Mass, wet, root, + % to control",rice (Diamant variety) [1]; [6],27%
same,"Mass, wet, sprout",rice (Diamant variety) [1]; [6],2.21 g/100 plantlings
same,"Mass, wet, sprout, + % to control",rice (Diamant variety) [1]; [6],24%
same,"Length, root",rice (Diamant variety) [1]; [7],6.6 cm
same,"Length, root, + % to control",rice (Diamant variety) [1]; [7],24.5%
same,"Length, sprout",rice (Diamant variety) [1]; [7],3.0 cm
same,"Length, sprout, + % to control",rice (Diamant variety) [1]; [7],11%
same,"Mass, dry, root",rice (Diamant variety) [1]; [7],0.26 g/100 plantlings
same,"Mass, dry, root, + % to control",rice (Diamant variety) [1]; [7],18%
same,"Mass, dry, sprout",rice (Diamant variety) [1]; [7],0.43 g/100 plantlings
same,"Mass, dry, sprout, + % to control",rice (Diamant variety) [1]; [7],48%
same,"Mass, wet, root",rice (Diamant variety) [1]; [7],1.35 g/100 plantlings
same,"Mass, wet, root, + % to control",rice (Diamant variety) [1]; [7],36%
same,"Mass, wet, sprout",rice (Diamant variety) [1]; [7],2.31 g/100 plantlings
same,"Mass, wet, sprout, + % to control",rice (Diamant variety) [1]; [7],30%
same,"Length, root",rice (Diamant variety) [1]; [8],7.0 cm
same,"Length, root, + % to control",rice (Diamant variety) [1]; [8],32%
same,"Length, sprout",rice (Diamant variety) [1]; [8],3.2 cm
same,"Length, sprout, + % to control",rice (Diamant variety) [1]; [8],18.5%
same,"Mass, dry, root",rice (Diamant variety) [1]; [8],0.29 g/100 plantlings
same,"Mass, dry, root, + % to control",rice (Diamant variety) [1]; [8],32%
same,"Mass, dry, sprout",rice (Diamant variety) [1]; [8],0.47 g/100 plantlings
same,"Mass, dry, sprout, + % to control",rice (Diamant variety) [1]; [8],62%
same,"Mass, wet, root",rice (Diamant variety) [1]; [8],1.46 g/100 plantlings
same,"Mass, wet, root, + % to control",rice (Diamant variety) [1]; [8],46%
same,"Mass, wet, sprout",rice (Diamant variety) [1]; [8],2.37 g/100 plantlings
same,"Mass, wet, sprout, + % to control",rice (Diamant variety) [1]; [8],33%
same,"Length, root",rice (Diamant variety) [1]; [9],7.2 cm
same,"Length, root, + % to control",rice (Diamant variety) [1]; [9],36%
same,"Length, sprout",rice (Diamant variety) [1]; [9],3.8 cm
same,"Length, sprout, + % to control",rice (Diamant variety) [1]; [9],41%
same,"Mass, dry, root",rice (Diamant variety) [1]; [9],0.35 g/100 plantlings
same,"Mass, dry, root, + % to control",rice (Diamant variety) [1]; [9],59%
same,"Mass, dry, sprout",rice (Diamant variety) [1]; [9],0.49 g/100 plantlings
same,"Mass, dry, sprout, + % to control",rice (Diamant variety) [1]; [9],69%
same,"Mass, wet, root",rice (Diamant variety) [1]; [9],1.62 g/100 plantlings
same,"Mass, wet, root, + % to control",rice (Diamant variety) [1]; [9],63%
same,"Mass, wet, sprout",rice (Diamant variety) [1]; [9],2.52 g/100 plantlings
same,"Mass, wet, sprout, + % to control",rice (Diamant variety) [1]; [9],41.5%
same,"Length, root",rice (Diamant variety) [1]; [10],6.7 cm
same,"Length, root, + % to control",rice (Diamant variety) [1]; [10],26%
same,"Length, sprout",rice (Diamant variety) [1]; [10],3.1 cm
same,"Length, sprout, + % to control",rice (Diamant variety) [1]; [10],15%
same,"Mass, dry, root",rice (Diamant variety) [1]; [10],0.27 g/100 plantlings
same,"Mass, dry, root, + % to control",rice (Diamant variety) [1]; [10],23%
same,"Mass, dry, sprout",rice (Diamant variety) [1]; [10],0.44 g/100 plantlings
same,"Mass, dry, sprout, + % to control",rice (Diamant variety) [1]; [10],52%
same,"Mass, wet, root",rice (Diamant variety) [1]; [10],1.44 g/100 plantlings
same,"Mass, wet, root, + % to control",rice (Diamant variety) [1]; [10],45%
same,"Mass, wet, sprout",rice (Diamant variety) [1]; [10],2.34 g/100 plantlings
same,"Mass, wet, sprout, + % to control",rice (Diamant variety) [1]; [10],31%
same,"Length, root",rice (Diamant variety) [1]; [11],6.3 cm
same,"Length, root, + % to control",rice (Diamant variety) [1]; [11],19%
same,"Length, sprout",rice (Diamant variety) [1]; [11],2.9 cm
same,"Length, sprout, + % to control",rice (Diamant variety) [1]; [11],7%
same,"Mass, dry, root",rice (Diamant variety) [1]; [11],0.23 g/100 plantlings
same,"Mass, dry, root, + % to control",rice (Diamant variety) [1]; [11],4.5%
same,"Mass, dry, sprout",rice (Diamant variety) [1]; [11],0.39 g/100 plantlings
same,"Mass, dry, sprout, + % to control",rice (Diamant variety) [1]; [11],34%
same,"Mass, wet, root",rice (Diamant variety) [1]; [11],1.31 g/100 plantlings
same,"Mass, wet, root, + % to control",rice (Diamant variety) [1]; [11],32%
same,"Mass, wet, sprout",rice (Diamant variety) [1]; [11],2.18 g/100 plantlings
same,"Mass, wet, sprout, + % to control",rice (Diamant variety) [1]; [11],22%
same,dry mass of the roots increased by,rice (Diamant variety) [1]; [12],59%
same,dry mass of the sprouts increased by,rice (Diamant variety) [1]; [12],69%
same,length of the root increased by,rice (Diamant variety) [1]; [12],36%
same,length of the sprout increased by,rice (Diamant variety) [1]; [12],41%
same,wet mass of the roots increased by,rice (Diamant variety) [1]; [12],63%
same,wet mass of the sprouts increased by,rice (Diamant variety) [1]; [12],41.5%
same,"Germination energy, %",rice (Diamant variety) [2]; [13],87.5%
same,"Germination rate, %",rice (Diamant variety) [2]; [13],94.0%
same,Germination energy,"rice (Diamant variety) [2]; rice, 1·10^−10% solution",86.3%
same,Germination rate,"rice (Diamant variety) [2]; rice, 1·10^−10% solution",92.7%
same,Germination energy,rice (Diamant variety) [2]; [14],77.7%
same,Germination rate,rice (Diamant variety) [2]; [14],83.3%
same,Germination energy,rice (Diamant variety) [2]; [15],80.3%
same,Germination rate,rice (Diamant variety) [2]; [15],85.0%
same,Germination energy,rice (Diamant variety) [2]; [16],81.7%
same,Germination rate,rice (Diamant variety) [2]; [16],87.3%
same,Germination energy,rice (Diamant variety) [2]; [17],84.3%
same,Germination rate,rice (Diamant variety) [2]; [17],90.7%
same,Germination energy,rice (Diamant variety) [2]; [18],86.3%
same,Germination rate,rice (Diamant variety) [2]; [18],92.7%
same,Germination energy,rice (Diamant variety) [2]; [19],83.3%
same,Germination rate,rice (Diamant variety) [2]; [19],89.3%
same,Germination energy,rice (Diamant variety) [2]; [20],79.3%
same,Germination rate,rice (Diamant variety) [2]; [20],84.7%
same,Germination energy,[3]; 1·10^−6% solution,82.3%
same,Germination rate,[3]; 1·10^−6% solution,84.7%
same,Germination energy,[3]; 1·10^−7% solution,85.3%
same,Germination rate,[3]; 1·10^−7% solution,89.0%
same,Germination energy,[3]; 1·10^−8% solution,87.7%
same,Germination rate,[3]; 1·10^−8% solution,93.3%
same,Germination energy,[3]; 1·10^−9% solution,89.71%
same,Germination rate,[3]; 1·10^−9% solution,95.8%
same,Germination energy,"[3]; 1·10^−9% solution, listed as Mg",89.7%
same,Germination energy,[3]; 1·10^−10% solution,90.3%
same,Germination rate,[3]; 1·10^−10% solution,93.7%
same,Germination energy,[3]; 1·10^−11% solution,88.0%
same,Germination rate,[3]; 1·10^−11% solution,91.7%
same,Germination energy,[3]; 1·10^−12% solution,86.7%
same,Germination rate,[3]; 1·10^−12% solution,90.8%
same,Germination energy,[3]; [21],86.0%
same,Germination rate,[3]; [21],95.7%

# Reference: patent US10781224B2, “Bis(oxymethyl)phosphinic acid and biogenic metal salts thereof as regulators of plant growth and development” (priority 2016, dated 2020)
